In patent US12005044B1, “Treatment of autism spectrum disorders with ergothioneine, selenoneine, or combinations thereof” (Autism Therapeutics Inc., priority 2022, dated 2024):

What was measured:
[1] = EFSA Panel; cited from earlier work
ASD individuals = experiment: CARS-2 scoring of ASD individuals before and after three months of ET dietary supplement; assay type: in vivo, human; set-up: key to CARS-2 Total scores, After treatment / average of total CARS-2 score after treatment: sum of 15 items, 15 (normal) to 60; ≥30 = ASD
Text: Examples are described below for using ET to treat ASD-affected individuals. Each of the four individuals identified in the examples has various severity of ASD. The examples set forth herein are directed to the use of ET dietary supplement for a period of three months.
The examples below therefore adopted the CARS-2 system to evaluate ET treatment effects in four ASD individuals.
To obtain a CARS-2 score, each individual is rated on a scale of 1 (normal) to 4 (severely abnormal) with respect to each of the 15 criteria (“relationship to others”, “imitation”, “emotional response”, “body use”, “object use”, “adaptation to change”, “visual response”, “listening response”, “taste-smell-touch responses”, “fear and nervousness”, “verbal communication”, “non-verbal communication”, “activity level”, “level and reliability of intellectual responses”, and “general impressions”). A total score is obtained by combining all of 15 separate scores, ranging from 15 to 60. A score of 15 is normal. Scores below 30 are considered very mild or non-autistic; 30-36.5 are considered mild to moderate ASD and scores greater than 36.5 are considered severe ASD. The scoring can be provided by either primary care giver or the parents.
Method of treatment: ET (2 mg/kg bw per day, 54 mg daily) powder is dissolved in drinking water (200 mL). The individual is treated by ET for three months. ET has no color, no taste when dissolved in water.
Method of treatment: ET (2 mg/kg bw per day, 42 mg daily) powder is dissolved in drinking water (200 mL). The individual is treated by ET for three months.
Method of treatment: ET (1 mg/kg bw per day, 74 mg daily) powder is dissolved in drinking water (200 mL). The individual is treated by ET for three months.

[2] = Example 1, child, ET 2 mg/kg bw per day, three months, before treatment 1.5
[3] = Example 1, child, ET 2 mg/kg bw per day, three months, before treatment 2
[4] = Example 1, child, ET 2 mg/kg bw per day, three months, before treatment 2.5
[5] = Example 1, child, ET 2 mg/kg bw per day, three months, before treatment 3
[6] = Example 2, child, ET 2 mg/kg bw per day, three months, before treatment 1
[7] = Example 2, child, ET 2 mg/kg bw per day, three months, before treatment 2
[8] = Example 2, child, ET 2 mg/kg bw per day, three months, before treatment 3
[9] = Example 3, child (ASD, Asperger's Syndrome), ET 2 mg/kg bw per day, three months, before treatment 1
[10] = Example 3, child (ASD, Asperger's Syndrome), ET 2 mg/kg bw per day, three months, before treatment 1.5
[11] = Example 3, child (ASD, Asperger's Syndrome), ET 2 mg/kg bw per day, three months, before treatment 2.5
[12] = Example 4, person, ET 1 mg/kg bw per day, three months, before treatment 1
[13] = Example 4, person, ET 1 mg/kg bw per day, three months, before treatment 2
[14] = Example 4, person, ET 1 mg/kg bw per day, three months, before treatment 3
[15] = Example 4, person, ET 1 mg/kg bw per day, three months, before treatment 4

In the case of C[N+](C)(C)[C@@H](Cc1c[nH]c(=S)[nH]1)C(=O)O [ET, ergothioneine], the “maximum allowed ET dosage based on the no-observed-adverse-effect level (NOAEL)” value [1] is given as 800 mg/kg bw per day, the “CARS-2 Activity level, After treatment” value (ASD individuals; [2]) is given as 1.5 and the “CARS-2 Adaptation to change, After treatment” value (shortened to “CARS-2 Adaptation to change”) (ASD individuals; [2]) is given as 1.5. The “CARS-2 Body use, After treatment” value (ASD individuals; [2]) was 1.5, the “CARS-2 Fear and nervousness, After treatment” value (“CARS-2 Fear and nervousness” for short) (ASD individuals; [3]) was 1 and the “CARS-2 Imitation, After treatment” value (ASD individuals; [3]) was 2. For the same compound, the “CARS-2 Listening response, After treatment” value (“CARS-2 Listening response” below) (ASD individuals; [3]) was 2, the “CARS-2 Non-verbal communication, After treatment” value (“CARS-2 Non-verbal communication” for short) (ASD individuals; [3]) was 2 and the “CARS-2 Object use, After treatment” value (ASD individuals; [3]) was 2. The “CARS-2 Taste-smell-touch responses, After treatment” value (“CARS-2 Taste-smell-touch responses” below) (ASD individuals; [3]) was 2, the “CARS-2 Emotional response, After treatment” value (from here on “CARS-2 Emotional response”) (ASD individuals; [4]) was 2 and the “CARS-2 Relationship to others, After treatment” value (from here on “CARS-2 Relationship to others”) (ASD individuals; [4]) was 2. For the same compound, the “CARS-2 Visual response, After treatment” value (ASD individuals; [4]) was 2.5, the “CARS-2 General impressions, After treatment” value (from here on “CARS-2 General impressions”) (ASD individuals; [5]) was 2.5 and the “CARS-2 Level and consistency of intellectual response, After treatment” value (shortened to “CARS-2 Level and consistency”) (ASD individuals; [5]) was 2. For the same compound, the “CARS-2 Verbal communication, After treatment” value (shortened to “CARS-2 Verbal communication”) (ASD individuals; [5]) was 2, the “CARS-2 Total scores, After treatment” value (ASD individuals; Example 1, child, ET 2 mg/kg bw per day, three months, before treatment 33) was 28.5 and the “CARS-2 Fear and nervousness” value (ASD individuals; [6]) was 1. The “CARS-2 Taste-smell-touch responses” value (ASD individuals; [6]) was 1, the “CARS-2 Adaptation to change” value (ASD individuals; [7]) was 2 and the “CARS-2 Body use, After treatment” value (ASD individuals; [7]) was 2. For the same compound, the “CARS-2 Emotional response” value (ASD individuals; [7]) was 2, the “CARS-2 General impressions” value (ASD individuals; [7]) was 1.5 and the “CARS-2 Imitation, After treatment” value (ASD individuals; [7]) was 2. For the same compound, the “CARS-2 Level and consistency” value (ASD individuals; [7]) was 2, the “CARS-2 Listening response” value (ASD individuals; [7]) was 1 and the “CARS-2 Object use, After treatment” value (ASD individuals; [7]) was 2. The “CARS-2 Visual response, After treatment” value (ASD individuals; [7]) was 2, the “CARS-2 Activity level, After treatment” value (ASD individuals; [8]) was 3 and the “CARS-2 Non-verbal communication” value (ASD individuals; [8]) was 2. For the same compound, the “CARS-2 Relationship to others” value (ASD individuals; [8]) was 2, the “CARS-2 Verbal communication” value (ASD individuals; [8]) was 2 and the “CARS-2 Total scores, After treatment” value (ASD individuals; Example 2, child, ET 2 mg/kg bw per day, three months, before treatment 32) was 27.5. The “CARS-2 Adaptation to change” value (ASD individuals; [9]) was 1, the “CARS-2 Body use, After treatment” value (ASD individuals; [9]) was 1 and the “CARS-2 Emotional response” value (ASD individuals; [9]) was 1. The “CARS-2 Level and consistency” value (ASD individuals; [9]) was 1, the “CARS-2 Listening response” value (ASD individuals; [9]) was 1 and the “CARS-2 Non-verbal communication” value (ASD individuals; [9]) was 1. For the same compound, the “CARS-2 Object use, After treatment” value (ASD individuals; [9]) was 1, the “CARS-2 Taste-smell-touch responses” value (ASD individuals; [9]) was 1 and the “CARS-2 Verbal communication” value (ASD individuals; [9]) was 1. For the same compound, the “CARS-2 Fear and nervousness” value (ASD individuals; [10]) was 1, the “CARS-2 General impressions” value (ASD individuals; [10]) was 1.5 and the “CARS-2 Visual response, After treatment” value (ASD individuals; [10]) was 1. For the same compound, the “CARS-2 Relationship to others” value (ASD individuals; Example 3, child (ASD, Asperger's Syndrome), ET 2 mg/kg bw per day, three months, before treatment 2) was 1, the “CARS-2 Activity level, After treatment” value (ASD individuals; [11]) was 3 and the “CARS-2 Imitation, After treatment” value (ASD individuals; [11]) was 2.5. For the same compound, the “CARS-2 Total scores, After treatment” value (ASD individuals; Example 3, child (ASD, Asperger's Syndrome), ET 2 mg/kg bw per day, three months, before treatment 20.5) was 19, the “diagnosis after ET treatment” value (ASD individuals; Example 3, child, ET 2 mg/kg bw per day, three months) was “no longer ASD” and the “CARS-2 Adaptation to change” value (ASD individuals; [12]) was 1. The “CARS-2 Body use, After treatment” value (ASD individuals; [12]) was 1, the “CARS-2 Emotional response” value (ASD individuals; [12]) was 1 and the “CARS-2 Fear and nervousness” value (ASD individuals; [13]) was 1. For the same compound, the “CARS-2 Non-verbal communication” value (ASD individuals; [13]) was 2, the “CARS-2 Relationship to others” value (ASD individuals; [13]) was 2 and the “CARS-2 Visual response, After treatment” value (ASD individuals; [13]) was 2. The “CARS-2 General impressions” value (ASD individuals; [14]) was 2, the “CARS-2 Imitation, After treatment” value (ASD individuals; [14]) was 3 and the “CARS-2 Object use, After treatment” value (ASD individuals; [14]) was 3. The “CARS-2 Taste-smell-touch responses” value (ASD individuals; [14]) was 2.5, the “CARS-2 Verbal communication” value (ASD individuals; [14]) was 2 and the “CARS-2 Listening response” value (ASD individuals; Example 4, person, ET 1 mg/kg bw per day, three months, before treatment 3.5) was 3. For the same compound, the “CARS-2 Activity level, After treatment” value (ASD individuals; [15]) was 4, the “CARS-2 Level and consistency” value (ASD individuals; [15]) was 3 and the “CARS-2 Total scores, After treatment” value (ASD individuals; Example 4, person, ET 1 mg/kg bw per day, three months, before treatment 37.5) was 31.5. For the same compound, the “average of total CARS-2 score after treatment” value (ASD individuals; examples 1-4, four individuals, decreased from 30.75, T=4.37, P=0.022 by paired student t-test) was 26.62.
